Patent publication US10336734B2, “Inhibitors of ACK1/TNK2 tyrosine kinase” (H. LEE MOFFITT CANCER CENTER AND RESEARCH INSTITUTE, INC., priority 2015, dated 2019)
Where a name gives a salt, the structure may show the parent alone.

Experiments:
[1] = test system: histone H4 Y88-phosphorylation; experiment: Immunoblot of H4 Y88-phosphorylation in ligand-treated PC cells; type: cell-based; settings: serum and androgen starved PC cells, ligand activated; 5 μM (DHT 10 nM)
Experimental: FIG. 2A through 2C. ACK1 inhibitor (R)-9bMS suppresses epigenetic modification of histone H4 at tyrosine 88.
To assess endogenous H4-phosphorylation, serum and androgen starved PC cells were treated with ligands to activate ACK1. It led to robust H4 Y88-phosphorylation, suppressed upon (R)-9bMS treatment (FIG. 2A). […] Moreover, H4 Y88-phosphorylation was also detected in human CRPCs using mass spectrometry, which was validated by immunoblotting (FIG. 3A-3C).

[2] = test system: LNCaP cells expressing constitutively activated ACK1; settings: mouse xenograft model; cited from earlier work
ACK1 [3] = target: T1, ACK1 (Homo sapiens (Human), UniProt Q07912); experiment: ACK1 ELISA; type: biochemical; settings: read-out: ACK1 ELISA % inhibition at 10 μM
[4] = test system: castration and radioresistant prostate xenograft tumor; settings: in vivo; cited from earlier work
JAK2 = JAK2 (Homo sapiens (Human), UniProt O60674); experiment: JAK2 IC50 (RB); type: biochemical
ACK1 [5] = target: T1, ACK1; experiment: ACK1 IC50 (RB); type: biochemical
c-Src = c-Src (Homo sapiens (Human), UniProt P12931); experiment: c-Src IC50 (RB); type: biochemical
ALK = ALK (Homo sapiens (Human), UniProt Q9UM73); experiment: ALK IC50 (RB); type: biochemical
[6] = test system: non-small cell lung cancer (NSCLC) cell lines; settings: panel of NSCLC cell lines; cited from earlier work

T1 sequence (Q07912 whole entry): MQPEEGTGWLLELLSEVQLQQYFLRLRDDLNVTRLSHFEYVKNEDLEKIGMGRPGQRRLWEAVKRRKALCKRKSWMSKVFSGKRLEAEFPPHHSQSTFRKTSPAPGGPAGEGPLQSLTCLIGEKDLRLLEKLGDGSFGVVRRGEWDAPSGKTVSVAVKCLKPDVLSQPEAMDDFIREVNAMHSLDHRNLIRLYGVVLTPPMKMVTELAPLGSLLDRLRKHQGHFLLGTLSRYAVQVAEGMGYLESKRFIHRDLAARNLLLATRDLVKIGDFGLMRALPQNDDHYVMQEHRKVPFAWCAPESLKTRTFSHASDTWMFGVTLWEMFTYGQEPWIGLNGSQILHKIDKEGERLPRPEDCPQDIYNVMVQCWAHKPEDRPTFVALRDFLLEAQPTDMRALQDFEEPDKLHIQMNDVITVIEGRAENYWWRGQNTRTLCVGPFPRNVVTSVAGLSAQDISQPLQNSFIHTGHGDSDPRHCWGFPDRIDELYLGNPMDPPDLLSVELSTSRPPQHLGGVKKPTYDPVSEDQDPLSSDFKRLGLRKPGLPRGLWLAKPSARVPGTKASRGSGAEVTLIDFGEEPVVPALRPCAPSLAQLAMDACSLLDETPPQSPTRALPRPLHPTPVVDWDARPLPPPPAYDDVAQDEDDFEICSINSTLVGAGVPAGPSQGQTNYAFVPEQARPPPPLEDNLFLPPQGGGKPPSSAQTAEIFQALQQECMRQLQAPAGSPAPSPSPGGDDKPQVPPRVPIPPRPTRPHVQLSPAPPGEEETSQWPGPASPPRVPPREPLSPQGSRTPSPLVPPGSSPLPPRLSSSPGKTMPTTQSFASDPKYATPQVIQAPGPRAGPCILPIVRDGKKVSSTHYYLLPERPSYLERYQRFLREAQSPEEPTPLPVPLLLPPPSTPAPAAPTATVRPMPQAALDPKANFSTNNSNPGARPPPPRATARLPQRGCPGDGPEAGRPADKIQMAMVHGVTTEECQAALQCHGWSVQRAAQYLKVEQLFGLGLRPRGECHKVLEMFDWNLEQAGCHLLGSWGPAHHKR
Chain of ALK (Q9UM73 19-1620, species assumed): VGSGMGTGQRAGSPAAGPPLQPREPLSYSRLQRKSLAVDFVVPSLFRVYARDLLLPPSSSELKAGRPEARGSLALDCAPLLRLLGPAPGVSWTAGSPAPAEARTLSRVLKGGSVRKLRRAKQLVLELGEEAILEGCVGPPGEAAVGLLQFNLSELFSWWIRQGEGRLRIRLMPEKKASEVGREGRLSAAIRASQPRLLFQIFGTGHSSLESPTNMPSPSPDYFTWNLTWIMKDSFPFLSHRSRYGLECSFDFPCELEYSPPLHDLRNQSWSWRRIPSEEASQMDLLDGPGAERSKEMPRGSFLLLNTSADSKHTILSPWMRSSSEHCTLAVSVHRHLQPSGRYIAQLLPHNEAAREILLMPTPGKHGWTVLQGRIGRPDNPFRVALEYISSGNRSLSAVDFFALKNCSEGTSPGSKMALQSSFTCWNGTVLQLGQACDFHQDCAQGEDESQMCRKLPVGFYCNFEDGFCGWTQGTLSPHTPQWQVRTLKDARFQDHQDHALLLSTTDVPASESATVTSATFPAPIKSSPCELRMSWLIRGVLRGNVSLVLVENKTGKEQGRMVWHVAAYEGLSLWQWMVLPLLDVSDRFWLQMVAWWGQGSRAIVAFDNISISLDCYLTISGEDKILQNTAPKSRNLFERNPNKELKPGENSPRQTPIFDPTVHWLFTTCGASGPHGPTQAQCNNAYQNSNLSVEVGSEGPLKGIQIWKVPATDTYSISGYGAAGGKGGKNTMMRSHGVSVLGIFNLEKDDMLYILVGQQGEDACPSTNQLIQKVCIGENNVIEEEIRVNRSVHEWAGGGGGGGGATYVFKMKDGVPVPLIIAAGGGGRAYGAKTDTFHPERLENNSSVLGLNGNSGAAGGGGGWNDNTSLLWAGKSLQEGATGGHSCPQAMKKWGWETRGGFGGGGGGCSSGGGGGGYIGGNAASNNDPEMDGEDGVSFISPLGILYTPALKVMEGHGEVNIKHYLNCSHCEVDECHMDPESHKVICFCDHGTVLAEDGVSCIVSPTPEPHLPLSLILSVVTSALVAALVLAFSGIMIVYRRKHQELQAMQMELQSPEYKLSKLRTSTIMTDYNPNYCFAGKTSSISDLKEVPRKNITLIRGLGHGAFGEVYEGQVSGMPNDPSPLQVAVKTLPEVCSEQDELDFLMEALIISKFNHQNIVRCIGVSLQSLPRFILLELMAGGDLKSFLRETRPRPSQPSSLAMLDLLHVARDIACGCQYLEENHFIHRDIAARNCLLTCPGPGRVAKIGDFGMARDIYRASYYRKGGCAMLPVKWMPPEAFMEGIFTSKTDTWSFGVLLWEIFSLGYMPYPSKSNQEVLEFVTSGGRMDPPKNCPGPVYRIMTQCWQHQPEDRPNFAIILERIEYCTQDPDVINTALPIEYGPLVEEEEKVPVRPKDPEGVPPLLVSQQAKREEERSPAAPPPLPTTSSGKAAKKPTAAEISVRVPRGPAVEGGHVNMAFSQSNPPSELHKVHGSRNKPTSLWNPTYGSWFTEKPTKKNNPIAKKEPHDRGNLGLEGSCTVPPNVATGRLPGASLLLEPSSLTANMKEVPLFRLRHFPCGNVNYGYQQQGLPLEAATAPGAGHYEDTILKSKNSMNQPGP
Chain of c-Src (P12931 whole entry, looked up, species assumed): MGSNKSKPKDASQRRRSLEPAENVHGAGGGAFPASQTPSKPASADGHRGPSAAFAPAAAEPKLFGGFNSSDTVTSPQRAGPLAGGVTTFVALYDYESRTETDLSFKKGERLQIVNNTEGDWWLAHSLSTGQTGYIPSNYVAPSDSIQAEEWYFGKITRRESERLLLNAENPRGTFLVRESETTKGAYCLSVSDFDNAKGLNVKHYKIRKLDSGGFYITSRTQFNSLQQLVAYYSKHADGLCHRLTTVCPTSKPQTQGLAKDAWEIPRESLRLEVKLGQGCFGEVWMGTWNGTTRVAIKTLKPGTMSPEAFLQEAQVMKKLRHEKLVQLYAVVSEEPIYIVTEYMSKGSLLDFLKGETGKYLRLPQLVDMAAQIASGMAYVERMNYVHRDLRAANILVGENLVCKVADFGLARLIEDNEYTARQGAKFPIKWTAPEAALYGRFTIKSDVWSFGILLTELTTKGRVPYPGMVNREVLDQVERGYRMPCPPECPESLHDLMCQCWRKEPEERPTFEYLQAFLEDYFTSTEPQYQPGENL
Chain of JAK2 (O60674 whole entry, species assumed): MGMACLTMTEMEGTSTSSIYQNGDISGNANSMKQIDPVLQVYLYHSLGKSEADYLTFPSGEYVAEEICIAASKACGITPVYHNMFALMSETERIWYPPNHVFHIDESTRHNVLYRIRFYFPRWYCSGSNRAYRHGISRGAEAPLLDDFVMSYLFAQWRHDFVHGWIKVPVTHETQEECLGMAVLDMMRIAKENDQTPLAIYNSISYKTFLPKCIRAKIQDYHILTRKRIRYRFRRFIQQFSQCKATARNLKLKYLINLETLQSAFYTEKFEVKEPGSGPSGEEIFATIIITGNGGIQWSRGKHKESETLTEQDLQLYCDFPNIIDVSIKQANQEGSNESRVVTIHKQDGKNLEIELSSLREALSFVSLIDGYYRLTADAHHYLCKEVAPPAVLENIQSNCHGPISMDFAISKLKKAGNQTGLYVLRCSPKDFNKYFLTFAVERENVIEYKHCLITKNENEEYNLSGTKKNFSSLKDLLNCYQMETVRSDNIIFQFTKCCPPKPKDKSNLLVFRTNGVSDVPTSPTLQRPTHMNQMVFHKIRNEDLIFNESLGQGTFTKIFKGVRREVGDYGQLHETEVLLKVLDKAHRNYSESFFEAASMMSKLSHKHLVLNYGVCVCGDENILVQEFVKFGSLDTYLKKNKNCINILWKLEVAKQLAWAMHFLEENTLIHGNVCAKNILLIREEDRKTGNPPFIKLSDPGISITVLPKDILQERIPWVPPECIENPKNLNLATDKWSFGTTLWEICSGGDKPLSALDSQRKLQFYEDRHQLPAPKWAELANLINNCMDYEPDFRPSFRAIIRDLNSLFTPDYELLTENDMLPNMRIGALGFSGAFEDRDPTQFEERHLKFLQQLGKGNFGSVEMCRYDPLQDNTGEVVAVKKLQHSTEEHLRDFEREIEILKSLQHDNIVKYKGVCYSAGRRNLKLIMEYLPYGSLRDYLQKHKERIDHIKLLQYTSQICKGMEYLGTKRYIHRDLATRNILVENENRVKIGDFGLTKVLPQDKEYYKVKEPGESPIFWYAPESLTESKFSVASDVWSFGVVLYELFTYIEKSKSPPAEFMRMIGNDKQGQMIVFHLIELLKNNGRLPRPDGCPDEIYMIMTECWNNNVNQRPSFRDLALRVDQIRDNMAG

Structure (SMILES)	inhibition at 10 µM (ACK1 [3])	further results
C[C@]12CCC(=O)C[C@@H]1CC[C@@H]1[C@@H]2CC[C@]2(C)[C@@H](O)CC[C@@H]12 [DHT]	–	H4 Y88-phosphorylation [1]: remained unaffected
Cc1nc(Nc2ncc(C(=O)Nc3c(C)cccc3Cl)s2)cc(N2CCN(CCO)CC2)n1 [Dasatinib]	–	Growth of LNCaP cells expressing constitutively activated ACK1, xenograft [2]: significantly reduced
CN1CCN(c2ccc(Nc3ncc(Cl)c(NCc4ccco4)n3)cc2)CC1 [Example 1, 5-Chloro-N4-(furan-2-ylmethyl)-N2-(4-(4-methylpiperazin-1-yl)phenyl)pyrimidine-2,4-diamine]	96%	–
c1ccc(-c2oc3ncnc(NC[C@@H]4CCCO4)c3c2-c2ccccc2)cc1 [Example 1b]	–	Castration and radioresistant prostate xenograft tumor growth [4]: inhibits
CN1CCN(c2ccc(Nc3ncc(Cl)c(NCC4CCCN4)n3)cc2)CC1 (stereo not drawn) [Example 2, 5-Chloro-N2-(4-(4-methylpiperazin-1-yl)phenyl)-N4-(pyrrolidin-2-ylmethyl)pyrimidine-2,4-diamine tri-TFA salt]	18.3%	–
Cc1ccc(CNc2nc(Nc3ccc(N4CCN(C)CC4)cc3)ncc2Cl)o1 [Example 3, 5-Chloro-N4-((5-methylfuran-2-yl)methyl)-N2-(4-(4-methylpiperazin-1-yl)phenyl)-pyrimidine-2,4-diamine]	90.9%	–
CN1CCN(c2ccc(Nc3ncc(Cl)c(NCC4CCCCO4)n3)cc2)CC1 (stereo not drawn) [Example 4, 5-Chloro-N2-(4-(4-methylpiperazin-1-yl)phenyl)-N4-((tetrahydro-2H-pyran-2-yl)methyl)pyrimidine-2,4-diamine hydrochloride]	97%	–
CN1CCN(c2ccc(Nc3ncc(Cl)c(NCC4CCCC4)n3)cc2)CC1 [Example 5, 5-Chloro-N4-(cyclopentylmethyl)-N2-(4-(4-methylpiperazin-1-yl)phenyl)pyrimidine-2,4-diamine]	97%	–
CN1CCN(c2ccc(Nc3ncc(Cl)c(NCC4CCCN4C)n3)cc2)CC1 (stereo not drawn) [Example 6, 5-Chloro-N2-(4-(4-methylpiperazin-1-yl)phenyl)-N4-((1-methylpyrrolidin-2-yl)methyl)pyrimidine-2,4-diamine tri TFA salt]	35.6%	–
CN1CCN(c2ccc(Nc3ncc(Cl)c(NCCc4ccccc4)n3)cc2)CC1 [Example 7, 5-chloro-N2-(4-(4-methylpiperazin-1-yl)phenyl)-N4-phenethylpyrimidine-2,4-diamine]	91.9%	–
CN1CCN(c2ccc(Nc3ncc(Cl)c(NCCCc4ccccc4)n3)cc2)CC1 [Example 8, 5-Chloro-N2-(4-(4-methylpiperazin-1-yl)phenyl)-N4-(3-phenylpropyl)pyrimidine-2,4-diamine]	85.8%	–
CN1CCN(c2ccc(Nc3ncc(Cl)c(NCCc4ccc(Cl)cc4Cl)n3)cc2)CC1 [Example 9, 5-Chloro-N4-(2,4-dichlorophenethyl)-N2-(4-(4-methylpiperazin-1-yl)phenyl)pyrimidine-2,4-diamine]	36.5%	–
CN1CCN(c2ccc(Nc3ncc(Cl)c(NCCc4c(Cl)cccc4Cl)n3)cc2)CC1 [Example 10, 5-Chloro-N4-(2,6-dichlorophenethyl)-N2-(4-(4-methylpiperazin-1-yl)phenyl)pyrimidine-2,4-diamine]	97%	–
CN1CCN(c2ccc(Nc3ncc(Cl)c(NCCc4ccccc4Cl)n3)cc2)CC1 [Example 11, 5-Chloro-N4-(2-chlorophenethyl)-N2-(4-(4-methylpiperazin-1-yl)phenyl)pyrimidine-2,4-diamine]	91%	–
CN1CCN(c2ccc(Nc3ncc(Cl)c(NCCc4c(F)cccc4Cl)n3)cc2)CC1 [Example 12, 5-Chloro-N4-(2-chloro-6-fluorophenethyl)-N2-(4-(4-methylpiperazin-1-yl)phenyl)pyrimidine-2,4-diamine]	93%	–
CN1CCN(c2ccc(Nc3ncc(Cl)c(NCCc4ccccc4F)n3)cc2)CC1 [Example 13, 5-Chloro-N4-(2-fluorophenethyl)-N2-(4-(4-methylpiperazin-1-yl)phenyl)pyrimidine-2,4-diamine]	91%	–
COc1ccccc1CCNc1nc(Nc2ccc(N3CCN(C)CC3)cc2)ncc1Cl [Example 14, 5-Chloro-N4-(2-methoxyphenethyl)-N2-(4-(4-methylpiperazin-1-yl)phenyl)pyrimidine-2,4-diamine]	98%	–
CN1CCN(c2ccc(Nc3ncc(Cl)c(NCCc4ccccn4)n3)cc2)CC1 [Example 15, 5-Chloro-N2-(4-(4-methylpiperazin-1-yl)phenyl)-N4-(2-(pyridin-2-yl)ethyl)pyrimidine-2,4-diamine]	91.9%	–
Cc1ccccc1CCNc1nc(Nc2ccc(N3CCN(C)CC3)cc2)ncc1Cl [Example 16, 5-Chloro-N4-(2-methylphenethyl)-N2-(4-(4-methylpiperazin-1-yl)phenyl)pyrimidine-2,4-diamine]	91%	–
COc1cc(N2CCN(C)CC2)ccc1Nc1ncc(Cl)c(NCCc2c(F)cccc2Cl)n1 [Example 20, 5-Chloro-N^4-(2-chloro-6-fluorophenethyl)-N^2-[2-methoxy-4-(4-methylpiperazin-1-yl)phenyl]pyrimidine-2,4-diamine]	–	IC50 (JAK2): 1720 nM; IC50 (ACK1 [5]): 27 nM; IC50 (c-Src): 11500 nM; IC50 (ALK): 7 nM
COc1ccccc1CCNc1nc(Nc2ccc(N3CCN(C)CC3)cc2OC)ncc1Cl [Example 21, 5-Chloro-N^2-[2-methoxy-4-(4-methylpiperazin-1-yl)phenyl]-N^4-(2-methoxyphenethyl)pyrimidine-2,4-diamine]	–	IC50 (JAK2): 860 nM; IC50 (ACK1 [5]): 24 nM; IC50 (c-Src): 8250 nM; IC50 (ALK): 2 nM
CN1CCN(C(=O)Cc2ccc(Nc3ncc(Cl)c(NC[C@H]4CCCO4)n3)cc2)CC1 [Example 24, (R)-2-(4-((5-chloro-4-(((tetrahydrofuran-2-yl)methyl)amino)pyrimidin-2-yl)amino)phenyl)-1-(4-methylpiperazin-1-yl)ethan-1-one]	86.8%	–
CN1CCC(NC(=O)c2ccc(Nc3ncc(Cl)c(NC[C@H]4CCCO4)n3)cc2F)CC1 [Example 25, (R)-4-((5-chloro-4-(((tetrahydrofuran-2-yl)methyl)amino)pyrimidin-2-yl)amino)-2-fluoro-N-(1-methylpiperidin-4-yl)benzamide]	86.9%	–
COc1cc(N2CCN(C)CC2)ccc1Nc1ncc(Cl)c(NC[C@H]2CCCO2)n1 [Example 26, (R)-5-Chloro-N^2-[2-methoxy-4-(4-methylpiperazin-1-yl)phenyl]-N^4-[(tetrahydrofuran-2-yl)methyl]pyrimidine-2,4-diamine]	–	IC50 (JAK2): 1080 nM; IC50 (ACK1 [5]): 39 nM; IC50 (c-Src): 16800 nM; IC50 (ALK): 34 nM
COc1cc(Nc2c(C#N)cnc3cc(OCCCN4CCN(C)CC4)c(OC)cc23)c(Cl)cc1Cl [bosutinib]	–	cell migration and invasion [6]: inhibit cell migration and invasion; viability [6]: not viability
CNC(=O)c1ccc(N2C(=S)N(c3ccc(C#N)c(C(F)(F)F)c3)C(=O)C2(C)C)cc1F [enzalutamide]	–	H4 Y88-phosphorylation [1]: remained unaffected
